Data reported in US12479847B2 (DANA-FARBER CANCER INSTITUTE, INC., priority 2019, dated 2025).

Assays:
Experiment in all cases: KINOMEscan (ScanMAX) kinase profiling
Type in all cases: binding
panel of 468 kinases [1] = target: T1, panel of 468 kinases (Homo sapiens, UniProt Q16512); details: PKN1; 1 μM; read-out: % control
T1 construct: purchased KINOMEscan (ScanMAX) service

panel of 468 kinases [2] = target: T2, panel of 468 kinases (Homo sapiens, UniProt O60331); details: PIP5K1C; 1 μM; read-out: % control
T2 construct: purchased KINOMEscan (ScanMAX) service
T2 sequence (O60331 whole entry): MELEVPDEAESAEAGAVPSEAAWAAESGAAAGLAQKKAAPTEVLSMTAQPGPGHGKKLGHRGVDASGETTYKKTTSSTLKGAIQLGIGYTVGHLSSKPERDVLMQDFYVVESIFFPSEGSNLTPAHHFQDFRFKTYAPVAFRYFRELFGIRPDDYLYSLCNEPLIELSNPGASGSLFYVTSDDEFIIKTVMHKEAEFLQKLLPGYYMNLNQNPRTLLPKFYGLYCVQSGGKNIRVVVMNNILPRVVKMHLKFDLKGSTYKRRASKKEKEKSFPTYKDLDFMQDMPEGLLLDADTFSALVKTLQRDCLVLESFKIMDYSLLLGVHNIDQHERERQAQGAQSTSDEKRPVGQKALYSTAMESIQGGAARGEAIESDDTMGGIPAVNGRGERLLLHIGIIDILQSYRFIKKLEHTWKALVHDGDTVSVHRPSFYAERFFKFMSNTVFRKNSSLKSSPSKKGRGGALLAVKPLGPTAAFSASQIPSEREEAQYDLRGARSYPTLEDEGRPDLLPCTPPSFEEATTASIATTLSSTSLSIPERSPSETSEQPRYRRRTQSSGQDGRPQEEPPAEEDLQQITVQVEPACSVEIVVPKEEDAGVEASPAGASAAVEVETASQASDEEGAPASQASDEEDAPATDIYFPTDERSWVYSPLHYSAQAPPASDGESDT

panel of 468 kinases [3] = target: T3, panel of 468 kinases (Homo sapiens, UniProt Q13153); details: PAK1; 1 μM; read-out: % control
T3 construct: purchased KINOMEscan (ScanMAX) service
T3 sequence (Q13153 whole entry): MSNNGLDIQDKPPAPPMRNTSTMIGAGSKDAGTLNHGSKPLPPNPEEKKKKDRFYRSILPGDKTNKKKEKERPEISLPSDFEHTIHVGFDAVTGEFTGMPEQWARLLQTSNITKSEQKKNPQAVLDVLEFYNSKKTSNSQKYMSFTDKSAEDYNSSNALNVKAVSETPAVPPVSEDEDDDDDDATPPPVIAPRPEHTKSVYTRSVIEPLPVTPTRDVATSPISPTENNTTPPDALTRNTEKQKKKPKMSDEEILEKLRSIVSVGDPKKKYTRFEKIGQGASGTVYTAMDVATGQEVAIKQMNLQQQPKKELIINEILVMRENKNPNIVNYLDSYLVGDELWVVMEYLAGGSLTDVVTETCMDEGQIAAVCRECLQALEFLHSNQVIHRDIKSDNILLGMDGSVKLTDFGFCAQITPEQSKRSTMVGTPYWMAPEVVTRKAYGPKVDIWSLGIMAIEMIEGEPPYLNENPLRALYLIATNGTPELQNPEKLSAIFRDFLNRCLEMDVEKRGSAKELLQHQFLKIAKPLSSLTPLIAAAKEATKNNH

panel of 468 kinases [4] = target: T4, panel of 468 kinases (Homo sapiens, UniProt P00533, G719C); details: EGFR(G719C); 1 μM; read-out: % control
T4 construct: purchased KINOMEscan (ScanMAX) service
T4 sequence (P00533 25-1210 G719C): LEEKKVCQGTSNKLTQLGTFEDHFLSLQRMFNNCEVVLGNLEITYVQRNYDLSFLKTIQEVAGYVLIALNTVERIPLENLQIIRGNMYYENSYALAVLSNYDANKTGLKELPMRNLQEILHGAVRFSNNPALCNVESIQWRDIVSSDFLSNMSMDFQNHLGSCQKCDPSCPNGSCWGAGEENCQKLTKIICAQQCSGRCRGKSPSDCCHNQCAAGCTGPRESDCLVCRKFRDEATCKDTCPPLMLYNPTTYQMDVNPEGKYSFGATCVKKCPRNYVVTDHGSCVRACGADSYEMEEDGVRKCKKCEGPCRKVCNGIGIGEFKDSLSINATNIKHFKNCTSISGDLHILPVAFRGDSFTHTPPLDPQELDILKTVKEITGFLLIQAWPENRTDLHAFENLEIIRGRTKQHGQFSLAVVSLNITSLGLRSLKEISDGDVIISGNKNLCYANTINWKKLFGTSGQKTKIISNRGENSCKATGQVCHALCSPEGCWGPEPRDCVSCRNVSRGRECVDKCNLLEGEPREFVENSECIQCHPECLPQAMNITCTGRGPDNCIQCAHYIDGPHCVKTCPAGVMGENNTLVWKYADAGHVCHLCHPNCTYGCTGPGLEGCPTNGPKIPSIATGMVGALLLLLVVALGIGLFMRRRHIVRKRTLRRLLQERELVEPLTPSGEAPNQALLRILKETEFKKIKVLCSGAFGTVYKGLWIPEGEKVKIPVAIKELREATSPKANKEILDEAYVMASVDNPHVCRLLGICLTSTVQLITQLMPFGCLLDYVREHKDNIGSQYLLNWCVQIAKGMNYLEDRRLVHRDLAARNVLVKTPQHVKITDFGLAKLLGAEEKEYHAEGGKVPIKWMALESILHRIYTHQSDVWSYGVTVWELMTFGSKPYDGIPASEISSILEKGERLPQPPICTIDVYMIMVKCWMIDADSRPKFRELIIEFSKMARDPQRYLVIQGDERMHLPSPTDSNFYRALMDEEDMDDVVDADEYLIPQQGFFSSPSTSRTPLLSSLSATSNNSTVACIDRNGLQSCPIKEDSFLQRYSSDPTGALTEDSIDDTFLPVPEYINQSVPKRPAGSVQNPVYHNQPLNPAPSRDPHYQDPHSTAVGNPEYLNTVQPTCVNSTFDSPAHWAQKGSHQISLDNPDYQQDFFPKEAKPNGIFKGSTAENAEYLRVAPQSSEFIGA

panel of 468 kinases [5] = target: T5, panel of 468 kinases (Homo sapiens, UniProt Q13873); details: BMPR2; 1 μM; read-out: % control
T5 construct: purchased KINOMEscan (ScanMAX) service
T5 sequence (Q13873 27-1038): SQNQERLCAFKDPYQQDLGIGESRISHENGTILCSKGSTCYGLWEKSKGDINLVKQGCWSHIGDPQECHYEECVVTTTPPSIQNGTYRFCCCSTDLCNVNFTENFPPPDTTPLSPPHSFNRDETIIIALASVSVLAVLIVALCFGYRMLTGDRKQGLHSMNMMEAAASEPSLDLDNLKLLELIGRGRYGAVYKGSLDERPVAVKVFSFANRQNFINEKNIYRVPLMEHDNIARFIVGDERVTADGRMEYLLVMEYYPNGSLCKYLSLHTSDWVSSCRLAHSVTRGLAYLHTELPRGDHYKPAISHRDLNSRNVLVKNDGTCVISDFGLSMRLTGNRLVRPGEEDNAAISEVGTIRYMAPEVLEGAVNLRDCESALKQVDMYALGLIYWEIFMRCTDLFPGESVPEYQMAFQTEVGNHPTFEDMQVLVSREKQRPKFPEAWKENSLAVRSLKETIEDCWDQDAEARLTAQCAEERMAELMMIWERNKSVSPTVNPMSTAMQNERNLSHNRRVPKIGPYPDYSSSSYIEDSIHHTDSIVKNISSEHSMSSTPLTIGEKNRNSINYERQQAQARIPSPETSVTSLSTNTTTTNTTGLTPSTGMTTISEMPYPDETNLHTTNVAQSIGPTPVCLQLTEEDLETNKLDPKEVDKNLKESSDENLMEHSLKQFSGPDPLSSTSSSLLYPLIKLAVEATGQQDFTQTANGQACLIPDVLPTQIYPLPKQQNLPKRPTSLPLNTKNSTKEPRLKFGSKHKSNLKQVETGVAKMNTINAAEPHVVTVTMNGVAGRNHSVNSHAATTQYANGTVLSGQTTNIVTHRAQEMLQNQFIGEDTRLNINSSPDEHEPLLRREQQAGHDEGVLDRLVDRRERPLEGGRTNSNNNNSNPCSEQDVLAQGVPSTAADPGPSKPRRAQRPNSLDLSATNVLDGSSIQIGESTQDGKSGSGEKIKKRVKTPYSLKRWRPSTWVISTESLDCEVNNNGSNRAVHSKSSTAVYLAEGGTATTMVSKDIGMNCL

panel of 468 kinases [6] = target: T6, panel of 468 kinases (Homo sapiens, UniProt Q8N5S9); details: CAMKK1; 1 μM; read-out: % control
T6 construct: purchased KINOMEscan (ScanMAX) service
T6 sequence (Q8N5S9 whole entry): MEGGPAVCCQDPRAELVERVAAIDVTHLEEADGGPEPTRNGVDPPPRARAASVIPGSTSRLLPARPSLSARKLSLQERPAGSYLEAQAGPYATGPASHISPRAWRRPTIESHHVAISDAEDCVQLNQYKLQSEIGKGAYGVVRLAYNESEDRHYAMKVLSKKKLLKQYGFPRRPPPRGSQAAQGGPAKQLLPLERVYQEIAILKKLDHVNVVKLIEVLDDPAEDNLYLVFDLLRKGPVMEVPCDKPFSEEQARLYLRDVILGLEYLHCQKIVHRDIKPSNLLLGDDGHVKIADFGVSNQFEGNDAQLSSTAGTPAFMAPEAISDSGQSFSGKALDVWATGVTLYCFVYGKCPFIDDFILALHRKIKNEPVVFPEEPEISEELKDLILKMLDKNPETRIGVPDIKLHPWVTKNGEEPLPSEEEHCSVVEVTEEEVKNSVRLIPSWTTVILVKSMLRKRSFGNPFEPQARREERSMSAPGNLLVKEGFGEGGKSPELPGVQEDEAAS

panel of 468 kinases [7] = target: T7, panel of 468 kinases (Homo sapiens, UniProt P49137); details: MAPKAPK2; 1 μM; read-out: % control
T7 construct: purchased KINOMEscan (ScanMAX) service
T7 sequence (P49137 whole entry): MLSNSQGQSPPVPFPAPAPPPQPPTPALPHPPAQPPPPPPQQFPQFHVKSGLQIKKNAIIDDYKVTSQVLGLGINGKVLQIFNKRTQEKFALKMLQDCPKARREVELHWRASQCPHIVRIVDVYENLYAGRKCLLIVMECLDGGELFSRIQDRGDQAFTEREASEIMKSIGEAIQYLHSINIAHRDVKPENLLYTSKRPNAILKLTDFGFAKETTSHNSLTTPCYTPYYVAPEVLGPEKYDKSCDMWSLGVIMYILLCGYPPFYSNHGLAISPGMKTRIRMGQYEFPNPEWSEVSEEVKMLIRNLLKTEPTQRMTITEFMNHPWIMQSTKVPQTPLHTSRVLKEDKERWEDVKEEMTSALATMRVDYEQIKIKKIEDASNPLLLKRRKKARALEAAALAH

panel of 468 kinases [8] = target: T8, panel of 468 kinases (Homo sapiens, UniProt O14965); details: AURKA; 1 μM; read-out: % control
T8 construct: purchased KINOMEscan (ScanMAX) service
T8 sequence (O14965 1-403): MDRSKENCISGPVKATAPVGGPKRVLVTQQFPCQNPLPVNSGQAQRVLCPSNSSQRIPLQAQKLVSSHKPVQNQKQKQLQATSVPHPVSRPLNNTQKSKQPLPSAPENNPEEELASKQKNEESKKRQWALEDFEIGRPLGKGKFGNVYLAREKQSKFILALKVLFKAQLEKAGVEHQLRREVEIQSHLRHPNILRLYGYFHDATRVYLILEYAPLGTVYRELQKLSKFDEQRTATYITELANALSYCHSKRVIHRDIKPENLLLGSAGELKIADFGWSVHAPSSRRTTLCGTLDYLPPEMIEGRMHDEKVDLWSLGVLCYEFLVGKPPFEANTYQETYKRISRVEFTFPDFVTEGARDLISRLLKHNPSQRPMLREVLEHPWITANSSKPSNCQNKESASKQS

panel of 468 kinases [9] = target: T9, panel of 468 kinases (Homo sapiens, UniProt Q8N568); details: DCAMKL2; 1 μM; read-out: % control
T9 construct: purchased KINOMEscan (ScanMAX) service
T9 sequence (Q8N568 whole entry): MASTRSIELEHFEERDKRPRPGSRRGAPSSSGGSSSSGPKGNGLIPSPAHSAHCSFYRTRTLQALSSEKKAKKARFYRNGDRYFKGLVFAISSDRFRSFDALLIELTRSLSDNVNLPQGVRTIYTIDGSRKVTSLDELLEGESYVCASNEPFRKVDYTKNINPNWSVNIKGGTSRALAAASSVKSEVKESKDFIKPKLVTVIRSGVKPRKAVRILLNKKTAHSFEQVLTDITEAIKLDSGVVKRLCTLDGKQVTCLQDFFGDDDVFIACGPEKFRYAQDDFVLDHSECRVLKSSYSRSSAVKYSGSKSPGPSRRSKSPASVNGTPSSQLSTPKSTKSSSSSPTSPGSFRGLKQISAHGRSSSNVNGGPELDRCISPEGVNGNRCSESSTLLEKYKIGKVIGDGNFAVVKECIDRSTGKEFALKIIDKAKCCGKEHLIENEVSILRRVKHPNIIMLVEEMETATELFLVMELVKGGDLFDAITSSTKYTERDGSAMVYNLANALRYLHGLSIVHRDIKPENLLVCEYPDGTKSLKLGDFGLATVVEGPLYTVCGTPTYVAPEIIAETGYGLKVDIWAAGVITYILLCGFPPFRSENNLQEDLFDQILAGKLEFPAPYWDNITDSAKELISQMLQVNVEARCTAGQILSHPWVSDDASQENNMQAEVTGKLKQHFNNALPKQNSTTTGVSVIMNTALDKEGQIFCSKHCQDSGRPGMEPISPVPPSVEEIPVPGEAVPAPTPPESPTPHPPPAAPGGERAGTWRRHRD

panel of 468 kinases [10] = target: T10, panel of 468 kinases (Homo sapiens, UniProt Q96J92); details: WNK4; 1 μM; read-out: % control
T10 construct: purchased KINOMEscan (ScanMAX) service

panel of 468 kinases [11] = target: T11, panel of 468 kinases (Homo sapiens, UniProt Q04771); details: ACVR1; 1 μM; read-out: % control
T11 construct: purchased KINOMEscan (ScanMAX) service
T11 sequence (Q04771 21-509): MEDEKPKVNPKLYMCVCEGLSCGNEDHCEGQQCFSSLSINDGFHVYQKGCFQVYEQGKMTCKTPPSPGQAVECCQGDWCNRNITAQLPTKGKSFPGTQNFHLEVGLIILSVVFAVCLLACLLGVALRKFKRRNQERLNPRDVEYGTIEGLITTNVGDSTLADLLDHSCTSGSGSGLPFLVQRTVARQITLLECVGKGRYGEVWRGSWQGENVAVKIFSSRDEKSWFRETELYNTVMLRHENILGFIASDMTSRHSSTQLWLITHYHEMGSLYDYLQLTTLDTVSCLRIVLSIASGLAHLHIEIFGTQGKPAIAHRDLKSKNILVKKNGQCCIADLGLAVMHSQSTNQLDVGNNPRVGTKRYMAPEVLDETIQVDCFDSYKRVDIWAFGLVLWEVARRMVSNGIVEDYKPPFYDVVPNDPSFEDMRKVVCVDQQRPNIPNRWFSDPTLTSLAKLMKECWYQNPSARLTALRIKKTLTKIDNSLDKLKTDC

T1 sequence (Q16512 whole entry): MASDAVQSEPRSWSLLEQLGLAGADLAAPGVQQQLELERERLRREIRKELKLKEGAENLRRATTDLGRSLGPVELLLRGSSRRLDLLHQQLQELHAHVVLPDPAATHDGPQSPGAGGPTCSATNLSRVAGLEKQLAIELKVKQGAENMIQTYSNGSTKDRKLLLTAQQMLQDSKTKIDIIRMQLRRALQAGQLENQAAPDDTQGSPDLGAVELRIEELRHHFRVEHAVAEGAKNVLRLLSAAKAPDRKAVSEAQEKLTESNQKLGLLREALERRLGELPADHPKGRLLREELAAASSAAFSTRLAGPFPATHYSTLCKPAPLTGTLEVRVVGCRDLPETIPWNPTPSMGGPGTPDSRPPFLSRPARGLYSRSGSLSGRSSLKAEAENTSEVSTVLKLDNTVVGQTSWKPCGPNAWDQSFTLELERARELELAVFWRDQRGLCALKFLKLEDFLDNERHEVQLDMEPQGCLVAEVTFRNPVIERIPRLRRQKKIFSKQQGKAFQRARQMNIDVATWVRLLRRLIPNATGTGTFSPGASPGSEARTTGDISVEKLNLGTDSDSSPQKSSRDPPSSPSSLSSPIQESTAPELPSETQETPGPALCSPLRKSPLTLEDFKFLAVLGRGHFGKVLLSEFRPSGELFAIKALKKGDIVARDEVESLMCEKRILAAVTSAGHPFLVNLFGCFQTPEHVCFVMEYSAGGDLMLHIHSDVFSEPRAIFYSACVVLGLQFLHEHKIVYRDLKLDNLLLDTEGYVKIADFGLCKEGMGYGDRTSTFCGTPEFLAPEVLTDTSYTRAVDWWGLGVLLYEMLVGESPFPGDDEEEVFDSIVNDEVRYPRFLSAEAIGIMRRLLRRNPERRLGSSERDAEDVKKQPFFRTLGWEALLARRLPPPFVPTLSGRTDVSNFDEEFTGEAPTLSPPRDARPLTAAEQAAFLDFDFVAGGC

SMILES | remaining binding at 1 µM (panel of 468 kinases [1]) [%] | remaining binding at 1 µM (panel of 468 kinases [2]) [%] | remaining binding at 1 µM (panel of 468 kinases [3]) [%] | remaining binding at 1 µM (panel of 468 kinases [4]) [%] | remaining binding at 1 µM (panel of 468 kinases [5]) [%] | remaining binding at 1 µM (panel of 468 kinases [6]) [%] | remaining binding at 1 µM (panel of 468 kinases [7]) [%] | remaining binding at 1 µM (panel of 468 kinases [8]) [%] | remaining binding at 1 µM (panel of 468 kinases [9]) [%] | remaining binding at 1 µM (panel of 468 kinases [10]) [%] | remaining binding at 1 µM (panel of 468 kinases [11]) [%]
CNc1nc(Nc2ccc(S(=O)(=O)N3CCC(N4CCOCC4)CC3)cc2OC)nc2[nH]cc(Cl)c12 [Compound 12, 5-chloro-N2-(2-methoxy-4-((4-morpholinopiperidin-1-yl)sulfonyl)phenyl)-N4-methyl-7H-pyrrolo[2,3-d]pyrimidine-2,4-diamine] | 100 | 57 | 100 | 97 | 97 | 100 | 72 | 93 | 96 | 61 | 100
CNc1nc(Nc2ccc(C(=O)N3CCC(N4CCOCC4)CC3)c3c2OCO3)nc2[nH]cc(Cl)c12 [Compound 75, (7-((5-chloro-4-(methylamino)-7H-pyrrolo[2,3-d]pyrimidin-2-yl)amino)benzo[d][1,3]dioxol-4-yl)(4-morpholinopiperidin-1-yl)methanone] | 98 | 55 | 100 | 100 | 92 | 95 | 31 | 45 | 99 | 66 | 100
CNc1nc(Nc2ccc(P3(=O)CCN(C4CCOCC4)CC3)cc2OC)nc2[nH]cc(Cl)c12 [Compound 77, 4-(4-((5-chloro-4-(methylamino)-7H-pyrrolo[2,3-d]pyrimidin-2-yl)amino)-3-methoxyphenyl)-1-(tetrahydro-2H-pyran-4-yl)-1,4-azaphosphinane 4-oxide] | 99 | 70 | 100 | 99 | 85 | 83 | 100 | 85 | 100 | 66 | 100
